The test relates to P. falciparum 3D7 growth, pLDH absorbance. Briefly: P. falciparum 3D7 growth inhibition, dose response, strain 3D7 (AID 2305).

pIC50: −log10 of the molar value.

Broadly, the pIC50 is −log10 of the IC50, conventionally taken in molar units. The low end stands for a high IC50, the high end for a low IC50.

For the molecule `O=S(=O)(NC1CCN(c2ccnc3cc(Cl)ccc23)C1)c1cccs1` (centres undefined), the pIC50 was 6.15.
As for `COc1ccc(CNC2CCN(C)CC2)cc1-c1ccc(S(=O)(=O)NCc2ccccc2)c(F)c1`, the figure is 6.10; as for `CCNc1cc(-c2cccc(OC)c2)nc(Nc2ccc(F)cc2)n1`, 5.90.
With `COc1cc(CCN=C(N)/C=C/c2ccc(Cl)cc2)ccc1Cl`, the pIC50 is 6.62.
As for `CCC(C)OC(=O)C1=C(C)NC2=C(C(=O)CC(c3ccc(OC)c(OC)c3)C2)C1c1ccc(C)o1` (centres undefined), the figure is 6.05.
The molecule `Nc1ncc(-c2ccc(NC(=O)Nc3cc(C(F)(F)F)ccc3F)cc2)c(N)n1` gave a pIC50 of 6.14.
Molecule `CC(C)[C@@H](NC(=O)NC1CCC(CCN2[C@@H]3CC[C@H]2CC(OC(=O)C(CO)c2ccccc2)C3)CC1)C(O)(c1ccccc1)c1ccccc1` (some centres undefined) had a pIC50 of 6.09.
`CN(C)c1ccc(-c2ccc(C(=O)NC3CCN(Cc4ccccc4)CC3)s2)cc1` had a pIC50 of 5.98.
Consider `CC[C@@]1(O)C(=O)OCc2c1cc1n(c2=O)Cc2c-1nc1cc3c(cc1c2CN1CCOCC1)OCO3`, for which the pIC50 was 6.02.
As for `c1cc(-c2nc3ccccc3[nH]2)nc(-c2nc3ccccc3[nH]2)c1`, the figure is 5.95.
For the molecule `Clc1ccc(CCNCCCCCCNCCc2ccc3c(c2)OCO3)cc1`, the pIC50 is 5.76.
`COc1ccc2nccc(NN=Cc3ccccc3)c2c1`: the pIC50 was 6.96.
Regarding `O=C(O)c1ccc2nc(-c3ccc(-c4ccccc4)cc3)n(C3CCN(Cc4ccc(-c5ncc[nH]5)cc4)CC3)c2c1`, the pIC50 is 5.76.
Regarding `CN(C)Cc1c(O)ccc2[nH]c(-c3ccc(OC(F)(F)F)cc3)nc12`, the pIC50 is 6.14.
Take `CCn1c(Sc2ccc(C#N)c([N+](=O)[O-])c2)nnc1-c1cccc(Cl)c1`: the pIC50 was 6.35.
`CC(C)CCn1c(Sc2ccc(C#N)c([N+](=O)[O-])c2)nnc1-c1ccccc1Cl`: the pIC50 is 5.99.
The figure for `N#CC(c1ccc(F)cc1)c1ccc2c(C(F)(F)F)cc(C(F)(F)F)nc2n1` (centres undefined) is 6.14; for `O=C(Nc1cccc(CN2CCCN(Cc3ccc(O)cc3)CC2)c1)c1cccc(Cl)c1` it is 6.04; for `CCCCCCn1c(Sc2ccc(C#N)c([N+](=O)[O-])c2)nnc1-c1cccs1` it is 6.15.
The figure for `O=C(/C=C/c1ccc(Cl)c(Cl)c1)NCCCCCN1CCCN(C(=O)Nc2ccc(C(F)(F)F)cc2)CC1` is 6.16; for `CCCCCCNC(=O)C1Cc2c([nH]c3ccc(C)cc23)C2(CCN(CCc3ccccc3)CC2)N1` (centres undefined) it is 5.90; for `Cc1cnc(NCC2CCCCC2)nc1N[C@@H](CC(C)C)C(=O)Nc1ccccc1` it is 6.06.
For `C#CCCOc1ccc2ccccc2c1CNCCCCCCNCc1c(OCCC#C)ccc2ccccc12`, the pIC50 was 6.09.
`COc1ccc(NC(=O)Nc2ccc(Nc3nc(C)cc(N4CCCC4)n3)cc2)cc1`: the negative-log IC50 (pIC50) was 6.85.
The figure for `CCCCCc1ccc(NC(=O)Nc2ccc(Cn3ncc(N4CCCNCC4)c(Cl)c3=O)cc2)cc1` is 5.94; for `COc1c(C2CCN(CCCCNC(=O)c3ccc(-c4ccc(Cl)cc4)c(O)c3)CC2)ccc2c1CCCC2` it is 6.64.
`COC(=O)c1cccc(CNCc2cccc(-c3cccc(-c4nc5ccc(C(F)(F)F)cc5[nH]4)c3)c2)c1` had a pIC50 of 6.77.
`CN1CCN(CC(=O)Nc2cccc(-c3ccc(-c4nc5ccc(F)cc5[nH]4)s3)c2)CC1`: the negative-log IC50 (pIC50) was 6.17.
The figure for `COc1ccc2c(OC)c(CNCCCCCCNCc3ccc4cc(OC)ccc4c3OC)ccc2c1` is 6.04; for `Oc1cc(Nc2ccnc3cc(I)ccc23)c(F)cc1Cl` it is 6.08; for `CN1CCN(CCCN(Cc2ccc(-c3cccc(CNC4CCCC4)c3)cc2)C(=O)/C=C/c2ccccc2)CC1` it is 5.88.
`Cc1ccccc1CNc1nccc(NCCC(=O)Nc2ccccc2)n1` showed a pIC50 of 6.05.
Turning to `COc1ccc(NC(=O)[C@H](CC(C)C)Nc2ccnc(Nc3ccccc3)n2)cc1`, the pIC50 was 5.80.
For `O=c1cc(NCCCNCc2cn(S(=O)(=O)c3ccccc3)c3ccccc23)[nH]c2ccccc12`, the negative logarithm of the IC50 (pIC50) was 6.06.
Take `CC(C)CN(C)c1ncnc2c1nc(-c1cncc(C#N)c1)n2CCNCc1ccccc1`: the pIC50 was 5.87.
Take `Cc1nc2c(s1)c(=O)cc(CCc1cccc(F)c1F)n2CC(=O)N(Cc1ccc(-c2ccc(C(F)(F)F)cc2)cc1)C1CCN(C(C)C)CC1`: the pIC50 was 6.11.
For the molecule `Cc1cc(CN2CCC(N3CC(c4ccccc4)(c4ccccc4)OCC3=O)C2)ccc1O` (centres undefined), the negative-log IC50 (pIC50) was 5.97.
Take `Cc1cccc(CN2CCCC3(CCN(Cc4ccccc4O)C3)C2)c1` (centres undefined): the pIC50 is 6.10.
As for `CS(=O)(=O)Nc1cccc(-c2cnc3[nH]cc(-c4cc(N)cc(C(=O)O)c4)c3c2)c1`, the pIC50 was 5.97.
Molecule `O=C(NCC1CCC(C(=O)NCCc2ccc(Cl)c(Cl)c2)CC1)c1ccc(O)c(-c2ccc(Cl)c(Cl)c2)c1` (centres undefined) had a pIC50 of 6.05.
The figure for `COc1ccc(CNC(=O)c2cnc3c(O)cccc3c2Nc2cccc(NC(=O)c3ccc(Cl)c(Cl)c3)c2)cc1` is 6.22; for `O=C(NC1CCN(Cc2ccccc2)C1)c1ccc(Nc2ccc(Br)cc2)nc1` (centres undefined) it is 5.97; for `O=C(NCc1cccc(Br)c1)c1ccc(CNC2CCN(Cc3ccccc3)CC2)cc1` it is 6.06.
For the molecule `CC1(C)N=C(N)N=C(N)N1OCC1COc2ccccc2O1` (centres undefined), the pIC50 was 7.52.

The values are drawn from PubChem BioAssay AID2305 (GlaxoSmithKline (GSK), 2010).
